We go through one molecule from ChEMBL document CHEMBL5518201, “Glycan-Modified Peptides for Dual Inhibition of Human Immunodeficiency Virus Entry into Dendritic Cells and T Cells” (J Med Chem, 2024).

The test system of this assay is Human immunodeficiency virus 1. As to the kind of experiment: Antiviral activity against HIV-1 pseudovirus infected in HEK293T cells transfected with DC-SIGN assessed as inhibition of viral entry into cells at 500 uM preincubated with compound for 2 hrs followed by viral addition and measured after 4 hrs by p24 ELISA relative to control. It is filed as functional. As to conditions: Human immunodeficiency virus 1, HEK-293T, time 6 hrs. For orientation: ELISA stands for enzyme-linked immunosorbent assay.

What is called inhibition is the change of the read-out against control, counted positive when it falls. On to `[N-]=[N+]=NCCO[C@H]1O[C@H](CO[C@H]2O[C@H](CO)[C@@H](O)[C@H](O)[C@@H]2O[C@H]2O[C@H](CO)[C@@H](O)[C@H](O)[C@@H]2O)[C@@H](O)[C@H](O[C@H]2O[C@H](CO)[C@@H](O)[C@H](O)[C@@H]2O[C@H]2O[C@H](CO)[C@@H](O)[C@H](O)[C@@H]2O)[C@@H]1O`, for which the inhibition at 500 µM came to 15%.
